Experimental data as given in patent US11713318B2, “Short conjugated oligoelectrolytes and uses thereof” (The Regents Of The University Of California, priority 2018, dated 2023).

Tests used:
[1] = system: Hep G2 cells; assay: Cytotoxicity tested by Eurofins Pharma Discovery Services; format: cell-based; settings: Homo sapiens, HepG2; Hep G2; data provided by Eurofins; read-out: IC50
[2] = system: primary human hepatocytes; assay: as above; format: cell-based; settings: Hepatocyte, data provided by Eurofins, read-out: IC50
[3] = system: S. aureus ATCC 33591 (MRSA); assay: MIC against resistant strains, Tables 5a-5d; format: cell-based; settings: Staphylococcus aureus, n = 3
Experimental: (§1) Compounds described herein were evaluated for growth inhibition against a variety of bacterial species, including strains that have developed resistance to common antibacterial treatments, according to the procedure described herein, or by analogous procedures known to those skilled in the art. Resistant bacterial strains used for compound testing include methicillin-resistant S. aureus (MRSA), vancomycin resistant Enterococci (VRE) and various multi-drug resistant (MDR) strains commonly associated with hospital-acquired (nosocomial) infections, including, but not limited to A. baumannii, K. pnuemoniae, and E. cloacae.

[4] = system: E. cloacae 1744299 (ESBL); assay: MIC against resistant strains, Tables 5a-5d; format: cell-based; settings: Enterobacter cloacae, n = 3
Experimental: as §1

[5] = system: P. aeruginosa CDC0248 (MDR); assay: MIC against resistant strains, Tables 5a-5d; format: cell-based; settings: Pseudomonas aeruginosa, n = 3
Experimental: as §1

[6] = system: K. pneumoniae CDC0010 (MDR); assay: MIC against resistant strains, Tables 5a-5d; format: cell-based; settings: Klebsiella pneumoniae, n = 3
Experimental: as §1

[7] = system: E. coli ATCC25922 (WT); assay: MIC against resistant strains, Tables 5a-5d; format: cell-based; settings: Escherichia coli, n = 3
Experimental: as §1

[8] = system: A. baumannii CDC0290 (MDR); assay: MIC against resistant strains, Tables 5a-5d; format: cell-based; settings: Acinetobacter baumannii, n = 3
Experimental: as §1

[9] = system: K. pneumoniae ATCC BAA-2473 (MDR); assay: MIC against resistant strains, Tables 5a-5d; format: cell-based; settings: Klebsiella pneumoniae, ATCCBAA2473, n = 3
Experimental: as §1

[10] = system: A. baumannii 1674627 (MDR); assay: MIC against resistant strains, Tables 5a-5d; format: cell-based; settings: Acinetobacter baumannii, n = 3
Experimental: as §1

[11] = system: E. faecium 1674620 (VRE); assay: MIC against resistant strains, Tables 5a-5d; format: cell-based; settings: Enterococcus faecium, n = 3
Experimental: as §1

[12] = system: S. epidermidis (ATCC 14990); assay: MIC broth microdilution method, Table 3; settings: Staphylococcus epidermidis, ATCC14990
[13] = system: Hep G2 (ATCC HB-8065) cells; assay: Cytotoxicity, MTT assay; format: cell-based; settings: Homo sapiens, HepG2, 24 h, Hep G2; MTT, 24 hours incubation; read-out: IC50
How it was run: (§2)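 Cells seeded at 5000/well (NIH 3T3) or 10000/well (Hep G2, J774, RAW264.7) in DMEM+10% FBS, incubated overnight, then exposed 24 h to 2-fold serial dilutions (9 concentrations, six replicates each). MTT added for 4 h, formazan dissolved in DMSO, A570 read. Viability expressed as blank-corrected absorbance relative to medium-only control.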

[14] = system: NIH 3T3 (ATCC CRL-1658) cells; assay: Cytotoxicity, MTT assay; format: cell-based; settings: Mus musculus, NIH3T3; NIH 3T3; MTT, 24 hours incubation; read-out: IC50
How it was run: as §2

[15] = system: J774 (ATCC TIB-67) cells; assay: Cytotoxicity, MTT assay; format: cell-based; settings: Mus musculus, MTT, 24 hours incubation, read-out: IC50
How it was run: as §2

Row | SMILES | IC50 [1] [µg/mL] | IC50 [2] [µg/mL] | MIC [3] [µg/mL] | MIC [4] [µg/mL] | MIC [5] [µg/mL] | MIC [6] [µg/mL] | MIC [7] [µg/mL] | MIC [8] [µg/mL] | MIC [9] [µg/mL] | MIC [10] [µg/mL] | MIC [11] [µg/mL] | MIC [12] [µg/mL] | IC50 [13] [µg/mL] | IC50 [14] [µg/mL] | IC50 [15] [µg/mL]
1 | CCCCCC[N+](C)(C)CCCCCCOc1cc(/C=C/c2cc(OCCCCCC[N+](C)(C)CCCCCC)cc(OCCCCCC[N+](C)(C)CCCCCC)c2)cc(OCCCCCC[N+](C)(C)CCCCCC)c1 [Formula E] | 5.6 | 13.2 | 0.5 | 2 | 8 | 4 | 1 | 4 | 2 | 4 | 0.25 | 4 | 7.3 | 10.4 | 2.5
2 | C[N+](C)(C)CCCCOc1cc(/C=C/c2ccc(/C=C/c3cc(OCCCC[N+](C)(C)C)cc(OCCCC[N+](C)(C)C)c3)cc2)cc(OCCCC[N+](C)(C)C)c1.[I-].[I-].[I-].[I-] [Formula F] | > 324 | > 324 | 2 | 8 | > 64 | 64 | 8 | 64 | 32 | 64 | 8 | 2 | > 1020 | > 128 | > 128
